Experimental data published in the supplement of paper PMC4862054.

Key:
[1] = test system: DU-4475; experiment: normalised viability (% of control), CellTiter-Blue; higher = more viable cells (about 100 = DMSO control); conditions: incubation time: 72 h
Procedure, shortened: (§1)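 Breast cancer cell lines were treated for 72 h in 384-well format and measured by CellTiter-Blue fluorescence at 560/590 nm. Results were normalised per plate to vehicle (100) and a positive kill control (0). The entry is normalised viability at a single listed concentration of the series.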

[2] = test system: CAL-51; experiment: as above; conditions: incubation time: 72 h
Procedure, shortened: as §1

[3] = test system: CAL-120; experiment: as above; conditions: incubation time: 72 h
Procedure, shortened: as §1

[4] = test system: HCC1143; experiment: as above; conditions: incubation time: 72 h
Procedure, shortened: as §1

[5] = test system: HCC1937; experiment: as above; conditions: incubation time: 72 h
Procedure, shortened: as §1

[6] = test system: BT-549; experiment: as above; conditions: incubation time: 72 h
Procedure, shortened: as §1

[7] = test system: SK-BR-3; experiment: as above; conditions: incubation time: 72 h
Procedure, shortened: as §1

[8] = test system: CAL-148; experiment: as above; conditions: incubation time: 72 h
Procedure, shortened: as §1

[9] = test system: MDA-MB-231; experiment: as above; conditions: incubation time: 72 h
Procedure, shortened: as §1

[10] = test system: HCC1599; experiment: as above; conditions: incubation time: 72 h
Procedure, shortened: as §1

[11] = test system: Hs578T; experiment: as above; conditions: incubation time: 72 h
Procedure, shortened: as §1

[12] = test system: MDA-MB-468; experiment: as above; conditions: incubation time: 72 h
Procedure, shortened: as §1

[13] = test system: MFM-223; experiment: as above; conditions: incubation time: 72 h
Procedure, shortened: as §1

[14] = test system: HDQ-P1; experiment: as above; conditions: incubation time: 72 h
Procedure, shortened: as §1

[15] = test system: CAL-85-1; experiment: as above; conditions: incubation time: 72 h
Procedure, shortened: as §1

[16] = test system: MDA-MB-436; experiment: as above; conditions: incubation time: 72 h
Procedure, shortened: as §1

[17] = test system: MDA-MB-453; experiment: as above; conditions: incubation time: 72 h
Procedure, shortened: as §1

[18] = test system: BT-474; experiment: as above; conditions: incubation time: 72 h
Procedure, shortened: as §1

[19] = test system: CAL-120; conditions: 72 h
Procedure, shortened: (§2)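 Each 384-well plate was pre-loaded with compound dissolved in 5 µl medium, received breast cancer cells in 20 µl suspension, and was incubated 72 h. A 2.5 µl addition of CellTiter-Blue for 2 h at 37 °C was followed by a fluorescence read at 560/590 nm. Data were normalised per plate to vehicle and a positive kill control and checked by Z'-factor. EC50 was fitted from the percent-inhibition dose-response curve, censored at the highest concentration, excluding rows with a drug sensitivity score of zero.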

[20] = test system: HCC1937; conditions: 72 h
Procedure, shortened: as §2

[21] = test system: BT-549; conditions: 72 h
Procedure, shortened: as §2

[22] = test system: SK-BR-3; conditions: 72 h
Procedure, shortened: as §2

[23] = test system: MDA-MB-436; conditions: 72 h
Procedure, shortened: as §2

COc1cccc2cc(-c3nc([C@H]4CC[C@H](C(=O)O)CC4)n4ncnc(N)c34)[nH]c12 [OSI-027]
normalised viability [%]
Conditions	3 nM	10 nM	30 nM	100 nM	1000 nM	10000 nM
[1]	96.6	–	92.5	82.5	–	–
[2]	97.3	–	93.8	84.6	–	–
[3]	–	101	–	–	66.4	12.5
[4]	–	101	–	–	72.9	35
[5]	–	71.7	–	–	59.8	33.9
[6]	–	98.9	–	–	76	16.1
[7]	–	93.7	–	–	19	13.1
[8]	86.7	–	87.5	82.2	–	–
[9]	–	87.4	–	–	69.4	25.9
[10]	–	106	–	–	72.4	47
[11]	–	99.4	–	–	59.1	23.6
[12]	–	87.8	–	–	66.4	22
[13]	–	101	–	–	34.9	16
[14]	78.3	–	80.4	76.8	–	–
[15]	95.4	–	83.2	100	–	–
[16]	–	76.6	–	–	56.4	31.6
[17]	79	–	88.2	71.6	–	–
[18]	–	106	–	–	54.2	25.9

Conditions	EC50, CellTiter-Blue viability [nM]
[19]	1800
[20]	771
[21]	2580
[22]	73.4
[23]	370
